Measurements published in US8809368B2, “Compounds affecting gap junction activity” (Kansas State University Research Foundation, priority 2006, dated 2014).

What was measured:
R28 cells = experiment: Dye transfer/scrape loading gap junction assay in R28 cells; format: cell-based, rat; conditions: 10 μM for 40 minutes
Method: To determine the effects of the compounds of the invention on gap junctions, […] R28 cells and lucifer yellow dye and rhodamine dextran were used to study gap junction. (Das, S.; Lauer, J.; Barnett, M.; Lin, D.; Akoev, V.; Battina, S.; Hua, D. H.; Takemoto, D. J. PKCγ phosphorylates connexin50 on serine-430. A presentation at 2006 ARVO Annual Meeting, Apr. 30-May 4, 2006, Fort Lauderdale, Fla.). […] The cells were treated with different compounds as shown @ 10 μM for 40 minutes. A mixture of lucifer yellow (LY) and rhodamine dextran (RD) was added to the cells at the center of the coverslip. Two cuts across the coverslip were made to form a transient tear in the plasma membranes of the cells to permit dye transfer through gap junctions. Cells were incubated with the dye for 20 minutes, then fixed and examined by fluorescent microscopy. For quantitative analysis the extent of dye transfer was estimated by counting the number of LY and RD labeled cells in the microscopic field and graphed. […] PQ3 is useful as a drug having reduced gap junction inhibitory activity. The gap junction activity of other compounds of the invention may be tested as described herein without the use of undue experimentation.
Gap junction activity assay. R28 cells were grown to 90% confluency on coverslips. They were treated with PQ1 at 10 μM for 40 min. A mixture of 1% each, in PBS, Lucifer yellow (LY) and Rhodamine Dextran (RD) (Molecular Probes, Eugene, Oreg.) were added to the cells at the center of the coverslip. Two cuts across the coverslip were made to form a transient tear in the plasma membranes of the cells to permit dye entry into cells. Cells were incubated with 2.5 μl of both of the dyes for 20 min, then fixed in 2.5% paraformaldehyde, washed in PBS and examined by fluorescent microscopy using a Nikon C1 confocal microscopy. For quantitation, the extent of dye transfer was calculated by counting the number of LY-labeled cells from the initial scrape with subtraction of RD-labeled cells, as a cell damage control, in the microscopic field. Four points per slide were photographed. The experiments were repeated six times, and data are means±SEM.

[1] = system: MDA-MB-453 human breast cancer cells; experiment: Soft agar colony growth, MDA-MB-453 cells; format: cell-based; conditions: for effect on breast cancer cell colony growth: Table 2
Method: FIG. 3(A) MDA-MB-453 and (B) T47D human breast cancer cells were treated with 10 μM of various quinolines for 7 days. Base agar plates were prepared containing 0.8% agar and 0.4% agar in Ham's F12. Cells (5×10^4 cells/33 mm well) were suspended in 100 μl of Ham's F12 with 0.4% agar and plated. These plates were maintained at 37° C. for 7 days and examined for the presence of colonies. Individual colonies of 40 μm or greater were examined. […] However, PQ3 caused a 2.3-fold increase in colony growth in MDA-MB-453 cells and PQ2 caused a 2.6-fold increase in T47D colony growth compared to DMSO. FIGS. 7 and 8 show MDA-MB-453 and T47D colony growth for various concentrations of PQ1 and SA tested for 7 days. The procedures are generally as described above. The cell colony growth decreased using 10 and 100 nM PQ1 for both cell types. Colony Growth Assay: T47D human breast cancer cells were treated with PQ1. Base agar plates were prepared containing 0.8% agar and 0.4% agar in Ham's F12. Cells (5×10^4 cells/33 mm2 well) were suspended in 100 μl of Ham's F12 with 0.4% agar and plated. These plates were maintained at 37° C. for 7 days and examined for the presence of colonies. Individual colonies of 40 um or greater were examined.

ZR75 = experiment: Gap junction intercellular communication, ZR75 cells; format: cell-based, human; conditions: Table 1
T47D cells = experiment: Scrape load/dye transfer (SL/DT) GJIC assay, T47D cells; format: cell-based, human
Method: In the experiments for FIG. 9, T47D cells were dosed with 100, 200 and 400 nM of PQ1 for 40 minutes. Lucifer yellow, a gap junctional permeable dye, was used to measure the GJIC. Rhodamine dextran was used as a control. The dotted line in FIG. 9 indicates the line of cut. This increase could be due to the interaction between the PQ1 and the connexin proteins which leads to the opening of the gap junction channel. PQ1 exerted no effect on the cell morphology of T47D cells (data not shown).
Scrape load dye transfer technique (SL/DT): Lucifer yellow is an intensely fluorescent […] dye having low molecular weight (Mr 457.2) and passes from one cell to another through gap junctions only. Rhodamine dextran is a high molecular weight polymer (Mr 10,000) used as a control as passes only through injured plasma membrane. Cells were grown to 90% confluency on cover slips, dosed with PQ 1 for 40 minutes. The 2.5 μl of 1% (w/v) Lucifer yellow and 0.75% (w/v) of Rhodamine dextran was mixed and added in the center of the coverslip. Two cuts crossing each other in the center of the coverslip were made. After three minutes, cells were washed with PBS and incubated at 37° C. in tissue culture media for 20 minutes. Cells were fixed and mounted on a slide, sealed and visualized under a fluorescence microscope at 10× objective.
Intercellular communication in many organs is maintained via GJIC. Several GJIC enhancers have been reported; however, an effective clinical drug targeting gap junction is not available at this time. The effect of PQ1 on the GJIC activity in T47D breast cancer cells was tested. […] Conversely, PQ1 has no effect on GJIC activity of human primary epithelial cells (MEC, normal cells) compared to its controls (data not shown). The distance of dye transfer from section cut to the farthest cells with dye was measured. […] MECs have uniform uptake of Lucifer yellow. This is due to the existing high level of gap junction activity of these normal cells.
Gap Junction Activity. […] Cells were mounted on a slide, sealed and visualized under a fluorescence microscope at 10× objective.

MDA-MB-231 = experiment: Gap junction intercellular communication, MDA-MB-231 cells; format: cell-based, human; conditions: Table 1

Row | Structure (SMILES) | block of lucifer yellow dye transfer through gap junctions (R28 cells; compared to untreated control cells) | colony growth attenuation ([1]; 10 μM, 7 days, compared to control) | cell colony growth ([1]; 10 and 100 nM, 7 days) | effect on breast cancer cell colony growth [1] | effect on gap junction intercellular communication (ZR75) | increase in distance of dye transfer (T47D cells; 200 nM, compared to control) | gap junction activity (SL/DT) compared to controls (T47D cells; 100, 200 and 500 nM) | gap junctional activity (SL/DT) (T47D cells; 200 and 500 nM for 40 minutes) | inhibition at 10 µM (R28 cells; Rattus norvegicus, R28, 40 min, as compared with the control, read-out: inhibitory activity on gap junction dye transfer) | effect on gap junction intercellular communication (MDA-MB-231)
1 | COc1cc(NCCCN)c2nccc(C)c2c1Oc1cccc(C(F)(F)F)c1.O=C(O)CCC(=O)O [PQ1, 6-Methoxy-8-[(3-aminopropyl)amino]-4-methyl-5-(3-trifluoromethylphenyloxy) quinoline succinic acid] | hardly any passage of the dye | 80-95% | decreased | Decrease | Decrease | 8.5 fold | significant increase | significant increase |  | 
2 | COc1cc(N)c2nccc(C)c2c1Oc1cccc(C(F)(F)F)c1 [PQ3, 8-Amino-6-methoxy-4-methyl-5-(3-trifluoromethylphenyloxy)quinoline] |  |  |  | Increase | No effect |  |  |  | ~20% | No effect
